Consider 24 compounds from patent publication US9266876B2 (Actelion Pharmaceuticals Ltd., priority 2012, dated 2016).

A word on the IC50: it is the concentration at which inhibition is half-maximal.

Experiment [1] addresses CXCR3 (Homo sapiens (Human), UniProt P49682). The experiment in a line: Receptor internalization assay. The format is cell-based. Particulars: human whole blood; final CXCL10 concentration 9 nM; 30 min 37° C.; CXCR3 cell surface expression on CD3 positive cells, flow cytometer; read-out: Internalization IC50. In a few lines: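 In human whole blood, compounds were incubated with CXCL10 (9 nM final) for 30 min at 37 °C to drive receptor internalization, then stained with anti-CXCR3/CD3 antibodies and lysed of red cells. Flow cytometry measured mean surface CXCR3 fluorescence on CD3+ cells, and IC50 came from single-site dose-response fits.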
Background: Flow cytometry measures light scatter and fluorescence of single cells or particles in a stream.

The target in experiment [2] is human CXCR3A (Homo sapiens (Human), UniProt P49682). Put plainly: FLIPR assay. The format is cell-based. Conditions: CHO-K1 cells expressing the human CXCR3A coupled to Galpha(16); CXCL10 agonist 20 nM; Fluo-4-AM fluorescence; mean values if determined several times. In a few lines:
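CHO-K1 cells expressing CXCR3A coupled to Gα16 were loaded with Fluo-4-AM for 1 h in Hepes-buffered HBSS, pH 7.4, with 5 mM probenecid. Compound dilutions were added on the FLIPR, followed by CXCL10 (added as a 20 nM solution). Baseline-subtracted peak fluorescence was fitted to a single-site curve for IC50.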

CXCR3, sequence (P49682 whole entry): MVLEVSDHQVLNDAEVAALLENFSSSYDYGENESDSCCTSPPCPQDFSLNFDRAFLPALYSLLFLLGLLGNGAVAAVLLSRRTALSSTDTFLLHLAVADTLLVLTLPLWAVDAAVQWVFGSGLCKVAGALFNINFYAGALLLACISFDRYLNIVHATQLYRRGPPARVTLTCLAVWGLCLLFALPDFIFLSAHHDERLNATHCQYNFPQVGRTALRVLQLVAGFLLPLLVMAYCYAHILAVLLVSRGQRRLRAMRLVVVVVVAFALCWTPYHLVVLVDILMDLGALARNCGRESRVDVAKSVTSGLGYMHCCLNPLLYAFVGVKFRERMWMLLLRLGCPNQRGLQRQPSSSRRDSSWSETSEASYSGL
human CXCR3A, sequence (P49682 whole entry): as above

For `O=C(Cn1c(=O)[nH]c2cccnc21)N1CCN(c2scnc2-c2nc3ccccc3[nH]2)CC1` [Example 71, 3-(2-{4-[4-(1H-Benzoimidazol-2-yl)-thiazol-5-yl]-piperazin-1-yl}-2-oxo-ethyl)-1,3-dihydro-imidazo[4,5-b]pyridin-2-one], the IC50 worked out at 639 nM in experiment [1] and 6 nM in experiment [2].
For the compound `Cc1cccc2[nH]c(-c3ncsc3N3CCN(C(=O)Cn4ccc5cccnc54)[C@H](C)C3)nc12` [Example 22, 1-{(R)-2-Methyl-4-[4-(4-methyl-1H-benzoimidazol-2-yl)-thiazol-5-yl]-piperazin-1-yl}-2-pyrrolo[2,3-b]pyridin-1-yl-ethanone], the half-maximal inhibitory concentration (IC50) in experiment [1] was determined as 568 nM; in experiment [2], 1 nM.
In the same order, the values of `Cc1ccn(CC(=O)N2CCN(c3sc(C(F)(F)F)nc3-c3nc4ccccc4[nH]3)C[C@H]2C)n1` [Example 174, 1-{(R)-4-[4-(1H-Benzoimidazol-2-yl)-2-trifluoromethyl-thiazol-5-yl]-2-methyl-piperazin-1-yl}-2-(3-methyl-pyrazol-1-yl)-ethanone] are 53 nM and 0.2 nM.
In the same order, the values of `C[C@@H]1CN(c2scnc2-c2nc3ccccc3[nH]2)CCN1C(=O)CN1CCc2cccnc21` [Example 139, 1-{(R)-4-[4-(1H-Benzoimidazol-2-yl)-thiazol-5-yl]-2-methyl-piperazin-1-yl}-2-(2,3-dihydro-pyrrolo[2,3-b]pyridin-1-yl)-ethanone] are 2930 nM and 2 nM.
For `C[C@@H]1CN(c2scnc2-c2nc3ccc(C(C)(C)C)cc3[nH]2)CCN1C(=O)Cn1ccc2cccnc21` [Example 24, 1-{(R)-4-[4-(6-tert-Butyl-1H-benzoimidazol-2-yl)-thiazol-5-yl]-2-methyl-piperazin-1-yl}-2-pyrrolo[2,3-b]pyridin-1-yl-ethanone] the same measures were 215 nM and 1 nM.
On to `Cc1nc(C)n(CC(=O)N2CCN(c3sc(C(F)(F)F)nc3-c3nc4c(F)c(F)ccc4[nH]3)C[C@H]2C)n1` [Example 231, 1-{(R)-4-[4-(4,5-Difluoro-1H-benzoimidazol-2-yl)-2-trifluoromethyl-thiazol-5-yl]-2-methyl-piperazin-1-yl}-2-(3,5-dimethyl-[1,2,4]triazol-1-yl)-ethanone], for which the IC50 came out at 332 nM in experiment [1] and 1 nM in experiment [2].
For `C[C@@H]1CN(c2sc(C(F)(F)F)nc2-c2nc3ccc(CN(C)C)cc3[nH]2)CCN1C(=O)Cn1cccn1` [Example 182, 1-{(R)-4-[4-(6-Dimethylaminomethyl-1H-benzoimidazol-2-yl)-2-trifluoromethyl-thiazol-5-yl]-2-methyl-piperazin-1-yl}-2-pyrazol-1-yl-ethanone] the same measures were 2240 nM and 27 nM.
For `C[C@@H]1CN(c2sc(C(F)(F)F)nc2-c2nc3ccccc3[nH]2)CCN1C(=O)Cn1cc(Cl)cn1` [Example 175, 1-{(R)-4-[4-(1H-Benzoimidazol-2-yl)-2-trifluoromethyl-thiazol-5-yl]-2-methyl-piperazin-1-yl}-2-(4-chloro-pyrazol-1-yl)-ethanone], the half-inhibitory concentration (IC50) turned out to be 227 nM in experiment [1] and 0.1 nM in experiment [2].
Regarding `COc1cccc2nc(-c3ncsc3N3CCN(C(=O)Cn4c(=O)n(C)c5ccccc54)CC3)[nH]c12` [Example 30, 1-(2-{4-[4-(7-Methoxy-1H-benzoimidazol-2-yl)-thiazol-5-yl]-piperazin-1-yl}-2-oxo-ethyl)-3-methyl-1,3-dihydro-benzoimidazol-2-one], the IC50 in experiment [1] was 566 nM; in experiment [2], 2 nM.
`C[C@@H]1CN(c2scnc2-c2nc3ccccc3[nH]2)CCN1C(=O)Cn1cnc2ccncc21` [Example 137, 1-{(R)-4-[4-(1H-Benzoimidazol-2-yl)-thiazol-5-yl]-2-methyl-piperazin-1-yl}-2-imidazo[4,5-c]pyridin-3-yl-ethanone]: the IC50 in experiment [1] was 1140 nM; in experiment [2] it was 5 nM.
In the case of `Cc1ccc(CC(=O)N2CCN(c3sc(C(F)(F)F)nc3-c3nc4ccccc4[nH]3)C[C@H]2C)cn1` [Example 199, 1-{(R)-4-[4-(1H-Benzoimidazol-2-yl)-2-trifluoromethyl-thiazol-5-yl]-2-methyl-piperazin-1-yl}-2-(6-methyl-pyridin-3-yl)-ethanone], the concentration for half-maximal inhibition (IC50) in experiment [1] was determined as 658 nM; in experiment [2], 0.4 nM.
For `CN(C)C[C@@H]1CN(c2sc(C(F)(F)F)nc2-c2nc3ccccc3[nH]2)CCN1C(=O)Cn1cnc2cccnc21` [Example 228, 1-{(R)-4-[4-(1H-Benzoimidazol-2-yl)-2-trifluoromethyl-thiazol-5-yl]-2-dimethylaminomethyl-piperazin-1-yl}-2-imidazo[4,5-b]pyridin-3-yl-ethanone] the same measures were 12 nM and 4 nM.
Take `C[C@@H]1CN(c2scnc2-c2nc3ccc(Cl)cc3[nH]2)CCN1C(=O)Cn1cnc2cccnc21` [Example 83, 1-{(R)-4-[4-(6-Chloro-1H-benzoimidazol-2-yl)-thiazol-5-yl]-2-methyl-piperazin-1-yl}-2-imidazo[4,5-b]pyridin-3-yl-ethanone]: the IC50 in experiment [1] turned out to be 340 nM; in experiment [2] it was 1 nM.
In the same order, the values of `C[C@@H]1CN(c2sc(C(F)(F)F)nc2-c2nc3ccccc3[nH]2)CCN1C(=O)CN1C(=O)C(F)(F)c2ccccc21` [Example 205, 1-(2-{(R)-4-[4-(1H-Benzoimidazol-2-yl)-2-trifluoromethyl-thiazol-5-yl]-2-methyl-piperazin-1-yl}-2-oxo-ethyl)-3,3-difluoro-1,3-dihydro-indol-2-one] are 111 nM and 2 nM.
For `C[C@@H]1CN(c2sc(C(F)(F)F)nc2-c2nc3ccccc3[nH]2)CCN1C(=O)Cc1nnc(-c2ccccc2)o1` [Example 196, 1-{(R)-4-[4-(1H-Benzoimidazol-2-yl)-2-trifluoromethyl-thiazol-5-yl]-2-methyl-piperazin-1-yl}-2-(5-phenyl-[1,3,4]oxadiazol-2-yl)-ethanone] the same measures were 6560 nM and 6 nM.
For the compound `O=C(CN1C(=O)COc2ccccc21)N1CCN(c2scnc2-c2nc3ccccc3[nH]2)CC1` [Example 78, 4-(2-{4-[4-(1H-Benzoimidazol-2-yl)-thiazol-5-yl]-piperazin-1-yl}-2-oxo-ethyl)-4H-benzo[1,4]oxazin-3-one], the IC50 was determined as 3120 nM in experiment [1] and 11 nM in experiment [2].
In the same order, the values of `C[C@@H]1CN(c2sc(C(F)(F)F)nc2-c2nc3ccccc3[nH]2)CCN1C(=O)Cc1ccccc1-n1nccn1` [Example 200, 1-{(R)-4-[4-(1H-Benzoimidazol-2-yl)-2-trifluoromethyl-thiazol-5-yl]-2-methyl-piperazin-1-yl}-2-(2-[1,2,3]triazol-2-yl-phenyl)-ethanone] are 627 nM and 28 nM.
`C[C@@H]1CN(c2sc(C(F)(F)F)nc2-c2nc3ccccc3[nH]2)CCN1C(=O)Cn1ccc(C(F)(F)F)n1` [Example 193, 1-{(R)-4-[4-(1H-Benzoimidazol-2-yl)-2-trifluoromethyl-thiazol-5-yl]-2-methyl-piperazin-1-yl}-2-(3-trifluoromethyl-pyrazol-1-yl)-ethanone]: the IC50 is 210 nM in experiment [1] and 1 nM in experiment [2].
For `C[C@@H]1CN(c2sc(C(F)(F)F)nc2-c2nc3ccccc3[nH]2)CCN1C(=O)Cn1cnc2cnccc21` [Example 206, 1-{(R)-4-[4-(1H-Benzoimidazol-2-yl)-2-trifluoromethyl-thiazol-5-yl]-2-methyl-piperazin-1-yl}-2-imidazo[4,5-c]pyridin-1-yl-ethanone] the same measures were 260 nM and 2 nM.
In the same order, the values of `O=C(Cn1ccc2cccnc21)N1CCN(c2scnc2-c2nc3ccccc3[nH]2)CC1` [Example 15, 1-{4-[4-(1H-Benzoimidazol-2-yl)-thiazol-5-yl]-piperazin-1-yl}-2-pyrrolo[2,3-b]pyridin-1-yl-ethanone] are 2420 nM and 14 nM.
Regarding `Cc1nc(C)n(CC(=O)N2CCN(c3sc(C(F)(F)F)nc3-c3nc4ccccc4[nH]3)C[C@H]2CN(C)C)n1` [Example 227, 1-{(R)-4-[4-(1H-Benzoimidazol-2-yl)-2-trifluoromethyl-thiazol-5-yl]-2-dimethylaminomethyl-piperazin-1-yl}-2-(3,5-dimethyl-[1,2,4]triazol-1-yl)-ethanone], the IC50 in experiment [1] was 69 nM; in experiment [2] it was 8 nM.
For `C[C@@H]1CN(c2scnc2-c2nc3cc(F)ccc3[nH]2)CCN1C(=O)Cn1cnc2cccnc21` [Example 96, 1-{(R)-4-[4-(5-Fluoro-1H-benzoimidazol-2-yl)-thiazol-5-yl]-2-methyl-piperazin-1-yl}-2-imidazo[4,5-b]pyridin-3-yl-ethanone] the same measures were 566 nM and 0.5 nM.
Consider `C[C@@H]1CN(c2scnc2-c2nc3ccccc3[nH]2)CCN1C(=O)Cn1cc(-c2ccccc2)nn1` [Example 188, 1-{(R)-4-[4-(1H-Benzoimidazol-2-yl)-thiazol-5-yl]-2-methyl-piperazin-1-yl}-2-(4-phenyl-[1,2,3]triazol-1-yl)-ethanone], for which the IC50 in experiment [1] was determined as 3820 nM; in experiment [2], 4 nM.
Turning to `Cc1nc(C)n(CC(=O)N2CCN(c3sc(C(F)(F)F)nc3-c3nc4ccc(C5CCOCC5)cc4[nH]3)C[C@H]2C)n1` [Example 238, 2-(3,5-Dimethyl-[1,2,4]triazol-1-yl)-1-((R)-2-methyl-4-{4-[6-(tetrahydro-pyran-4-yl)-1H-benzoimidazol-2-yl]-2-trifluoromethyl-thiazol-5-yl}-piperazin-1-yl)-ethanone], the IC50 in experiment [1] turned out to be 103 nM; in experiment [2], 1 nM.
